Assay results published in patent publication US11149047B2, “Aryl imidazoles for treatment of cancer” (Aptose Biosciences Inc., priority 2017, dated 2021).

What was measured:
[1] = test system: G4 sequences (telomere, MYC, KIT, rRNA oligos); assay: Modified FRET assay, melting of G-quadruplex oligos; type: binding, human; settings: FIG. 13C; COMPOUND I data at 6-hour incubation
Description: FRET assay and data analysis was performed as described previously and modified by using dual labeled (5′ FAM-3′ BHQ1) single-stranded oligos. Melting temperature of each oligo was assessed in the presence of vehicle DMSO or escalating concentrations of COMPOUND I, Fe(COMPOUND I)3, CX-5461, or TMPyP4 using a Roche LightCycler 96 [at 37° C. for 300 seconds followed by temperature increased in […] intervals up to 91° C. (25 steps) with 300-second total incubation time at each temperature]. Drug and oligo reaction mixes were analyzed immediately or incubated for 6 hours at room temperature and then analyzed. […] COMPOUND I data are presented for 6-hour time point.
The ability of COMPOUND I (parental monomeric form of the drug) and Fe(COMPOUND I)3 to bind and stabilize G4 sequences using a modified FRET assay was evaluated (FIGS. 21 and 22). TMPyP4, a well-known G4 ligand, and CX-5461, a clinical stage molecule recently reported to have G4-binding properties, were utilized as controls to assess the specificity of COMPOUND I and Fe(COMPOUND I)3 for G4-stabilizing activity.

[2] = test system: Raji/COMPOUND IR cells; assay: Cytotoxicity study, MTS cell proliferation assay, 5 days; type: cell-based, human
Description: (§1) The human Burkitt lymphoma cell line Raji was obtained from the American Type Tissue Culture Collection and cultured in RPMI 1640 medium (ATCC) supplemented with 10% fetal bovine serum (ATCC,) at 37° C., 5% CO2. The COMPOUND I-resistant Raji (Raji/COMPOUND IR) cell line was generated by exposure to progressively higher concentrations of COMPOUND I over a period of 6 months. CAOV3 cells were obtained from ATCC and cultured in complete DMEM supplemented with 10% fetal bovine serum. MCF7 vector controlled and BRCA1 shRNA subclones were obtained from Dr. Simon Powell (Memorial Sloan-Kettering Cancer Center) and cultured in EMBM with 10% fetal bovine serum. MCF10A and hTERT-IMEC clones were obtained from Dr. Ben Ho Park (Johns Hopkins University). HCT116 BRCA2^+/+ cells and BRCA2^−/− cells were obtained from Dr. Samuel Aparicio (British Columbia Cancer Research Centre). PEO1 and PEO4 cells were obtained from Dr. Sharon Cantor (University of Massachusetts) and these cell lines were cultured under the same conditions as previously published. Sakai et al., Functional restoration of BRCA2 protein by secondary BRCA2 mutations in BRCA2-mutated ovarian carcinoma, Cancer Res. 2009; 69 (16):6381-6; Konishi et al., Mutation of a single allele of the cancer susceptibility gene BRCA1 leads to genomic instability in human breast epithelial cells, Proc. Natl. Acad. Sci. 2011; 108 (43):17773-8; Xu et al., CX-5461 is a DNA G-quadruplex stabilizer with selective lethality in BRCA1/2 deficient tumours, Nature Communications 2017; 8:14432, all of which are hereby incorporated by reference.
(§2) Cells were plated and treated with the indicated drugs in 96-well plates for 5 days. Cell viability was measured using CellTiter 96 AQueous one solution (MTS) cell proliferation assay purchased from Promega, and IC50 values were calculated using GraphPad Prism 6 Software.

[3] = test system: Raji cells; assay: as above; type: cell-based, human; settings: concentrations up to 300 nM, FIG. 5C
Description: as §1, §2

[4] = test system: PEO4 and PEO1 ovarian cancer cell lines; assay: Sensitivity of BRCA2-proficient and -deficient cells; type: cell-based; settings: FIG. 3D
Description: as §2
(§3) The finding that COMPOUND I produced DNA damage led to the investigation of whether cells deficient in homologous recombination were hypersensitive to this drug. The hypothesis that there would be synthetic lethality between COMPOUND I and BRCA1 deficiency using isogenic pairs of BRCA1-proficient and -deficient human cell lines was tested. […] The conclusion that BRCA1-deficient cells are hypersensitive to COMPOUND I was further supported by the results obtained in MCF7 E7 cells in which BRCA1 expression is stably knocked down by the expression of an shRNAi. […] Whether BRCA2-deficient cells are more sensitive to COMPOUND I was tested using the BRCA2-proficient and BRCA2-deficient ovarian cancer cell lines, PEO4 and PEO1, respectively. PEO1 is BRCA2-deficient and sensitive to cisplatin and a poly(ADP-ribose) polymerase inhibitor AG14361. PEO4 was derived from ascites at the time of relapse with cisplatin resistance and contains a secondary mutation that restores BRCA2 function. […] Thus, loss of either BRCA1 or BRCA2 function renders malignant cells hypersensitive to COMPOUND I.

[5] = test system: MCF10A BRCA1-het #1 and #2 clones vs control; assay: Sensitivity of BRCA1-proficient and -deficient isogenic clones; type: cell-based, human; settings: FIG. 3A
Description: as §2, §3

[6] = test system: hTERT-IMEC BRCA1 knock-in clone; assay: as above; type: cell-based, human; settings: FIG. 3B
Description: as §2, §3

## Cc1cnc(CNC(=O)c2c(=O)c3ccc(N4CCCN(C)CC4)nc3n3c2sc2ccccc23)cn1 [CX-5461]
[1]
  stabilization of G4 sequences (ΔT1/2): potent stabilizer of all G4 sequences tested

## COc1ccc2c3c([nH]c2c1)[C@H](CC(C)C)N1C(=O)[C@H](CCC(=O)OC(C)(C)C)NC(=O)[C@@H]1C3 [Ko143, reference compound]
[2]; concentrations up to 300 nM, FIG. 5C
  toxicity of Ko143 alone: not toxic
[3]
  toxicity of Ko143 alone: not toxic

## C[n+]1ccc(-c2c3nc(c(-c4cc[n+](C)cc4)c4ccc([nH]4)c(-c4cc[n+](C)cc4)c4ccc([nH]4)c(-c4cc[n+](C)cc4)c4nc2C=C4)C=C3)cc1 [TMPyP4]
[1]
  stabilization of G4 sequences (ΔT1/2): stabilized all G4 motifs except the G4 of the KIT gene promoter

## N.N.O=C([O-])C1(C(=O)[O-])CCC1.[Pt+2] [carboplatin, reference compound]
[2]
  sensitivity of Raji/COMPOUND IR cells relative to Raji: significantly cross-resistant

## COc1cc([C@@H]2c3cc4c(cc3[C@@H](O[C@@H]3O[C@@H]5CO[C@@H](C)O[C@H]5[C@H](O)[C@H]3O)[C@H]3COC(=O)[C@H]23)OCO4)cc(OC)c1O [etoposide, reference compound]
[2]
  sensitivity of Raji/COMPOUND IR cells relative to Raji: hypersensitive

## O=C(c1cc(Cc2n[nH]c(=O)c3ccccc23)ccc1F)N1CCN(C(=O)C2CC2)CC1 [olaparib, reference compound]
[4]
  effect of restoration of BRCA2 function (PEO4 vs PEO1): increased resistance
[5]
  sensitivity of BRCA1-het knockin clones vs control: more sensitive to olaparib
[6]
  sensitivity of BRCA1 2-bp knock-in clone: hypersensitive to both olaparib and COMPOUND I

## CC[C@@]1(O)C(=O)OCc2c1cc1n(c2=O)Cc2cc3c(CN(C)C)c(O)ccc3nc2-1 [topotecan, reference compound]
[2]; vs Raji
  cross-resistance of Raji/COMPOUND IR cells: 3 fold
[2]; with Ko143, FIG. 5E
  effect of Ko143 on topotecan resistance: reversed this resistance completely
